In patent publication US9045523B2, “Compounds” (PHAROS PHARMACEUTICALS INC., priority 2006, dated 2015):

Tests used:
interleukin-2 synthesis = conditions: antigen stimulated mice spleen cells in vitro; cited from earlier work
feline herpes infection = conditions: reactivation of feline herpes infection; Roberts et al; cited from earlier work
[1] = acid conditions of the stomach; cited from earlier work
articular inflammation = conditions: cited from earlier work
β-glucosidases = conditions: Kolarova et al; cited from earlier work
interleukin-10 synthesis = conditions: antigen stimulated mice spleen cells in vitro; cited from earlier work
[2] = test system: antigen stimulated mice spleen cells; conditions: in vitro; cited from earlier work
IFN synthesis = conditions: antigen stimulated mice spleen cells in vitro; cited from earlier work
follistatin = follistatin (Rattus norvegicus, UniProt P21674); conditions: Innis et al; cited from earlier work
[3] = test system: C-type lectin-like domain of a recombinant natural killer cell receptor; conditions: Kogelberg et al; cited from earlier work
[4] = target: pro-inflammatory chemokine MCP-1 (Homo sapiens, UniProt P13500); conditions: Yonghao et al; cited from earlier work
FGF receptors = conditions: Yeh et al; cited from earlier work
hepatocyte growth factor = hepatocyte growth factor (Homo sapiens, UniProt P14210); conditions: Zhou et al; cited from earlier work
GM-CSF synthesis = assay: PHA stimulated human whole blood cytokine synthesis: GM-CSF; assay type: cell-based; conditions: 0.01 μM, days 1-4
Experimental: (§1) Blood was taken from a healthy young volunteer, into heparin Vacutainers®. Whole-blood was diluted to give a final concentration of 1/10 in culture medium (CM). CM consisted of RPMI 1640 with L-glutamine, penicillin and streptomycin. PHA (phytohaemagglutinin) solution and N-acetyl-β,β-diglucosylamine octasulphate (DOS) and PHA solution were added to non-control samples. Final drug concentrations tested were 100 μM, 1 μM, 0.1 μM and 0.01 μM. All samples were tested in triplicate.
(§2) Reagents were placed in four sets of 24-well (6×4) flat-bottomed plates (Corning US) and incubated for 1, 2, 3 and 4 days respectively (incubator conditions: 37° C., humid and 5% CO2). […]
(§3) The protocol of Lagrelius et al. was followed (Cytokine, 2006, 33, pp. 156-165). The culture supernatants were analysed once for concentrations of IL-1α, IL-1β, IL-2, IL-4, IL-5, IL-6, IL-7, IL-10, IL-12, IL-13, IL-17, IFNγ, GCSF, GM-CSF, MCP-1, RANTES, VEGF and TNFα. The cytokines were measured simultaneously using a Bio-Plex assay. […] A monoclonal antibody specific for each cytokine of interest is coupled onto a particular set of beads with a known internal fluorescence, and several combinations of cytokine antibody coated beads can be included and thus multiple cytokines are measured simultaneously. […] A minimum of 100 beads per region were analysed. […]

IL-10 synthesis = assay: PHA stimulated human whole blood cytokine synthesis: IL-10; assay type: cell-based; conditions: 0.01 μM, days 1-4
Experimental: as §1, §2, §3

IL-1β synthesis = assay: PHA stimulated human whole blood cytokine synthesis: IL-1β; assay type: cell-based; conditions: 0.01 μM, days 1-4
Experimental: as §1, §2, §3

VEGF synthesis = assay: PHA treated human whole blood cytokine synthesis: VEGF; assay type: cell-based; conditions: 0.01 μM; human whole blood in which VEGF synthesis has been inhibited by PHA; days 1-4
Experimental: as §1, §2, §3

TNFα synthesis [5] = assay: PHA stimulated human whole blood cytokine synthesis: TNFα; assay type: cell-based; conditions: 0.01 μM, days 1-4, Bio-Plex
Experimental: as §1, §2, §3

IL-2 synthesis = assay: PHA stimulated human whole blood cytokine synthesis: IL-2; assay type: cell-based; conditions: 0.01 μM, days 1-4
Experimental: as §1, §2, §3

IL-13 synthesis = assay: PHA stimulated human whole blood cytokine synthesis: IL-13; assay type: cell-based; conditions: 0.01 μM, days 1-4
Experimental: as §1, §2, §3

IL-6 synthesis = assay: PHA stimulated human whole blood cytokine synthesis: IL-6; assay type: cell-based; conditions: 0.01 μM, days 1-4
Experimental: as §1, §2, §3

IFNγ synthesis = assay: PHA stimulated human whole blood cytokine synthesis: IFNγ; assay type: cell-based; conditions: 0.01 μM, days 1-4
Experimental: as §1, §2, §3

GCSF synthesis = assay: PHA stimulated human whole blood cytokine synthesis: GCSF; assay type: cell-based; conditions: 0.01 μM, days 1-4
Experimental: as §1, §2, §3

IL-17 synthesis = assay: PHA stimulated human whole blood cytokine synthesis: IL-17; assay type: cell-based; conditions: 0.01 μM, days 1-4
Experimental: as §1, §2, §3

IL-7 synthesis = assay: PHA stimulated human whole blood cytokine synthesis: IL-7; assay type: cell-based; conditions: 0.01 μM, days 1-4
Experimental: as §1, §2, §3

IL-4 synthesis = assay: PHA stimulated human whole blood cytokine synthesis: IL-4; assay type: cell-based; conditions: 0.01 μM, days 1-4
Experimental: as §1, §2, §3

TNFα synthesis [6] = assay: TNFα synthesis in whole blood stimulated with 5 μg/ml PHA; assay type: cell-based; conditions: human whole blood 1:10, 5 μg/ml PHA for 4 days; 0.01, 0.1 or 1 μM; ELISA days 1-4
Experimental: Human whole blood was diluted 1:10 in RPMI and stimulated with 5 μg/ml phytohaemagglutinin (PHA) for 4 days in the absence or presence of N-acetyl-β,β-diglucosylamine octasulphate (DOS) or N-acetyl-β,β-diglucosylamine oligosulphate 1200 at concentrations of 0.01, 0.1 or 1 μM. The TNFα concentrations were assayed by ELISA on days 1, 2, 3 and 4.

TNFα synthesis [7] = assay: LPS stimulated U937 macrophage TNFα synthesis; assay type: cell-based, human; conditions: PMA differentiated U937; 80 nM lps 72 hours; 0.10, 1.00, 10.00 and 100.00 μM
Experimental: U937 human monocytes were incubated with 5 μg/ml PMA (phorbol myristate acetate) for 5 days in order to induce differentiation. N-acetyl-β,β-diglucosylamine octasulphate (DOS) was added to the macrophages produced at concentrations of 0 (control), 0.10, 1.00, 10.00 and 100.00 μM.

IL-1α synthesis = assay: PHA stimulated human whole blood cytokine synthesis: IL-1α; assay type: cell-based; conditions: 0.01 μM, days 1-4
Experimental: as §1, §2, §3

IL-5 synthesis = assay: PHA stimulated human whole blood cytokine synthesis: IL-5; assay type: cell-based; conditions: 0.01 μM, days 1-4
Experimental: as §1, §2, §3

inflamed joints = conditions: Ronca et al; cited from earlier work
[8] = Cahalon et al; cited from earlier work

Sequence of pro-inflammatory chemokine MCP-1 (P13500 24-99): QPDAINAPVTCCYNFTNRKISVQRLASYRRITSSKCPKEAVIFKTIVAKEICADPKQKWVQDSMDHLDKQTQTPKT
Sequence of follistatin (P21674 93-165 limits assumed): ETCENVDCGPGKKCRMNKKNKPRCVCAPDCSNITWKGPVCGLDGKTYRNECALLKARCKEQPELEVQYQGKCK
Sequence of hepatocyte growth factor (P14210 31-127 limits assumed, species assumed): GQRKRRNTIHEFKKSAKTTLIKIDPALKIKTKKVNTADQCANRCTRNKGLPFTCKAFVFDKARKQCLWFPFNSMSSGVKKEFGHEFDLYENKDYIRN

Q: Which interleukin-2 synthesis (interleukin-2 synthesis) does the source give for OC[C@H]1O[C@@H](N[C@@H]2O[C@H](CO)[C@@H](O)[C@H](O)[C@H]2O)[C@H](O)[C@@H](O)[C@@H]1O [di-β-D-glucosylamine] here?
A: The interleukin-2 synthesis was “inhibits”.

Q: What about the “development of ocular inflammation” value (feline herpes infection) of the same compound?
A: Its value is “prevents the development of ocular inflammation”.

Q: What about the “hydrolysis of the glycosylamine group” value [1] of the same compound?
A: Its value is “readily hydrolysed”.

Q: And the articular inflammation (articular inflammation; mice, parenteral routes, Bolton et al)?
A: The articular inflammation was “inhibits articular inflammation”.

Q: And the “activity by the oral route” value (articular inflammation; oral route)?
A: Its value is “inactive”.

Q: And the “inhibition of β-glucosidases” value (β-glucosidases)?
A: The value was “inhibit β-glucosidases”.

Q: And the interleukin-10 synthesis (interleukin-10 synthesis)?
A: The interleukin-10 synthesis was “inhibits”.

Q: And the “antigen induced immune cell proliferation” value [2]?
A: The value was “inhibits”.

Q: What about the IFN synthesis (IFN synthesis) of the same compound?
A: The IFN synthesis was “inhibits”.

Q: Which binding to follistatin (follistatin) does the source give for O=S(=O)(O)OC[C@H]1O[C@@](COS(=O)(=O)O)(O[C@H]2O[C@H](COS(=O)(=O)O)[C@@H](OS(=O)(=O)O)[C@H](OS(=O)(=O)O)[C@H]2OS(=O)(=O)O)[C@@H](OS(=O)(=O)O)[C@@H]1OS(=O)(=O)O [sucrose octasulphate] here?
A: The binding to follistatin was “bind”.

Q: What about the “binding to natural killer cell receptor C-type lectin-like domain” value [3] of the same compound?
A: Its value is “bind”.

Q: And the “binding to MCP-1” value [4]?
A: Its value is “bind”.

Q: And the “FGF dependent dimerisation of FGF receptors” value (shortened to “FGF dependent dimerisation”) (FGF receptors)?
A: The value was “induced FGF dependent dimerisation of FGF receptors”.

Q: And the “binding to hepatocyte growth factor” value (hepatocyte growth factor)?
A: The value was “bind”.

Q: Which “PHA stimulated synthesis of GM-CSF” value (GM-CSF synthesis) does the source give for CC(=O)N([C@@H]1O[C@H](COS(=O)(=O)O)[C@@H](OS(=O)(=O)O)[C@H](OS(=O)(=O)O)[C@H]1OS(=O)(=O)O)[C@@H]1O[C@H](COS(=O)(=O)O)[C@@H](OS(=O)(=O)O)[C@H](OS(=O)(=O)O)[C@H]1OS(=O)(=O)O [N-acetyl-β,β-diglucosylamine octasulphate] here?
A: The value was “inhibits”.

Q: What about the “PHA stimulated synthesis of IL-10” value (IL-10 synthesis) of the same compound?
A: Its value is “inhibits”.

Q: And the “PHA stimulated synthesis of IL-1β” value (IL-1β synthesis)?
A: The value was “inhibits”.

Q: And the “level of VEGF” value (VEGF synthesis)?
A: The value was “increased”.

Q: And the “PHA stimulated synthesis of TNFα” value (TNFα synthesis [5])?
A: Its value is “inhibits”.

Q: And the “PHA stimulated synthesis of IL-2” value (IL-2 synthesis)?
A: Its value is “inhibits”.

Q: What about the “PHA stimulated synthesis of IL-13” value (IL-13 synthesis) of the same compound?
A: The value was “inhibits”.

Q: And the “PHA stimulated synthesis of IL-6” value (IL-6 synthesis)?
A: The value was “inhibits”.

Q: What about the “PHA stimulated synthesis of IFNγ” value (IFNγ synthesis) of the same compound?
A: The value was “inhibits”.

Q: What about the “PHA stimulated synthesis of GCSF” value (GCSF synthesis) of the same compound?
A: The value was “inhibits”.

Q: What about the “PHA stimulated synthesis of IL-17” value (IL-17 synthesis) of the same compound?
A: Its value is “inhibits”.

Q: And the “level of IL-7” value (IL-7 synthesis)?
A: Its value is “increased”.

Q: What about the “PHA stimulated synthesis of IL-4” value (IL-4 synthesis) of the same compound?
A: The value was “inhibits”.

Q: What about the “inhibition of TNFα synthesis” value (TNFα synthesis [6]) of the same compound?
A: Its value is “effectively inhibit TNFα synthesis”.

Q: What about the “inhibition of TNFα synthesis” value (TNFα synthesis [7]) of the same compound?
A: Its value is “inhibited TNFα synthesis at all concentrations down to 0.1 μM”.

Q: And the “PHA stimulated synthesis of IL-1α” value (IL-1α synthesis)?
A: Its value is “inhibits”.

Q: And the “PHA stimulated synthesis of IL-5” value (IL-5 synthesis)?
A: Its value is “inhibits”.

Q: With 2-hydroxysucrose heptasulphate as the compound, how does the “FGF dependent dimerisation” value (FGF receptors) read?
A: The value was “much lesser extent”.

Q: For chondroitin sulphate, which “inflammatory cell accumulation and inflammation” value (inflamed joints) is on record?
A: Its value is “reduces inflammatory cell accumulation and inflammation”.

Q: With 4,6-dihydroxysucrose hexasulphate as the compound, how does the “FGF dependent dimerisation” value (FGF receptors) read?
A: The value was “not at all”.

Q: With CC(=O)N[C@H]1C(O)O[C@H](CO)[C@@H](O[C@@H]2OC(C(=O)O)=C[C@H](O)[C@H]2O)[C@@H]1O (stereo partly drawn) [desulphated heparin disaccharide, O-(α-L-ido-4-enepyranosyluronic acid)-(1→4)-2-deoxy-N-acetyl-D-glucoseamine] as the compound, how does the “effectiveness as an anti-inflammatory agent” value [8] read?
A: The value was “ineffective”.
